Consider four compounds from ChEMBL document CHEMBL1139296, “Pleuromutilin derivatives having a purine ring. Part 2: influence of the central spacer on the antibacterial activity against Gram-positive pathogens” (2009).

The subject of one assay is Streptococcus pyogenes. Description: Antimicrobial activity against Streptococcus pyogenes […] by NCCLS method. The class given is functional.
On to `C=C[C@]1(C)C[C@@H](OC(=O)CN2CCN(C(=O)CCn3cnc4c(N5CCC(N)C5)ncnc43)CC2)[C@]2(C)[C@H](C)CC[C@]3(CCC(=O)[C@@H]32)[C@@H](C)[C@@H]1O.Cl.Cl` (stereo partly specified), for which the MIC amounted to 0.032 µg/mL.
On the same count and under the same terms, the figure for `C=C[C@]1(C)C[C@@H](OC(=O)CN(C)CCN(C)C(=O)CCn2cnc3c(N4CCC(N)C4)ncnc32)[C@]2(C)[C@H](C)CC[C@]3(CCC(=O)[C@@H]32)[C@@H](C)[C@@H]1O.Cl.Cl` (stereo partly specified) is 0.063 µg/mL; for `C=C[C@]1(C)C[C@@H](OC(=O)CSC2CCCN(C(=O)CCn3cnc4c(N5CCNCC5)nc(N)nc43)C2)[C@]2(C)[C@H](C)CC[C@]3(CCC(=O)[C@@H]32)[C@@H](C)[C@@H]1O.Cl` (stereo partly specified) it is 0.016 µg/mL.
The same measure, in the same setting: the figure for `C=C[C@]1(C)C[C@@H](OC(=O)CSCC2CN(C(=O)CCn3cnc4c(N5CCNCC5)nc(N)nc43)CCO2)[C@]2(C)[C@H](C)CC[C@]3(CCC(=O)[C@@H]32)[C@@H](C)[C@@H]1O.Cl` (stereo partly specified) is 0.032 µg/mL.

Another assay relates to Streptococcus pneumoniae. Description: Antimicrobial activity against penicillin-resistant Streptococcus pneumoniae KT2524 by NCCLS method. It counts as functional.
Turning to `C=C[C@]1(C)C[C@@H](OC(=O)CN2CCN(C(=O)CCn3cnc4c(N5CCC(N)C5)ncnc43)CC2)[C@]2(C)[C@H](C)CC[C@]3(CCC(=O)[C@@H]32)[C@@H](C)[C@@H]1O.Cl.Cl` (stereo partly specified), the MIC worked out at 0.063 µg/mL.
On the same count and under the same terms, the figure for `C=C[C@]1(C)C[C@@H](OC(=O)CN(C)CCN(C)C(=O)CCn2cnc3c(N4CCC(N)C4)ncnc32)[C@]2(C)[C@H](C)CC[C@]3(CCC(=O)[C@@H]32)[C@@H](C)[C@@H]1O.Cl.Cl` (stereo partly specified) is 0.125 µg/mL; for `C=C[C@]1(C)C[C@@H](OC(=O)CSC2CCCN(C(=O)CCn3cnc4c(N5CCNCC5)nc(N)nc43)C2)[C@]2(C)[C@H](C)CC[C@]3(CCC(=O)[C@@H]32)[C@@H](C)[C@@H]1O.Cl` (stereo partly specified) it is 0.032 µg/mL.
`C=C[C@]1(C)C[C@@H](OC(=O)CSCC2CN(C(=O)CCn3cnc4c(N5CCNCC5)nc(N)nc43)CCO2)[C@]2(C)[C@H](C)CC[C@]3(CCC(=O)[C@@H]32)[C@@H](C)[C@@H]1O.Cl` (stereo partly specified) returned an MIC of 0.125 µg/mL.

The subject of another assay is Staphylococcus aureus. The assay is described as follows: Antimicrobial activity against methicillin-susceptible Staphylococcus aureus Smith by NCCLS method. The class given is functional.
Regarding `C=C[C@]1(C)C[C@@H](OC(=O)CN2CCN(C(=O)CCn3cnc4c(N5CCC(N)C5)ncnc43)CC2)[C@]2(C)[C@H](C)CC[C@]3(CCC(=O)[C@@H]32)[C@@H](C)[C@@H]1O.Cl.Cl` (stereo partly specified), the MIC came to 0.25 µg/mL.
`C=C[C@]1(C)C[C@@H](OC(=O)CN(C)CCN(C)C(=O)CCn2cnc3c(N4CCC(N)C4)ncnc32)[C@]2(C)[C@H](C)CC[C@]3(CCC(=O)[C@@H]32)[C@@H](C)[C@@H]1O.Cl.Cl` (stereo partly specified) displayed an MIC of 1 µg/mL.
Same read-out and setting: the value for `C=C[C@]1(C)C[C@@H](OC(=O)CSC2CCCN(C(=O)CCn3cnc4c(N5CCNCC5)nc(N)nc43)C2)[C@]2(C)[C@H](C)CC[C@]3(CCC(=O)[C@@H]32)[C@@H](C)[C@@H]1O.Cl` (stereo partly specified) was 0.5 µg/mL; that for `C=C[C@]1(C)C[C@@H](OC(=O)CSCC2CN(C(=O)CCn3cnc4c(N5CCNCC5)nc(N)nc43)CCO2)[C@]2(C)[C@H](C)CC[C@]3(CCC(=O)[C@@H]32)[C@@H](C)[C@@H]1O.Cl` (stereo partly specified) was 1 µg/mL.

Another assay concerns Staphylococcus aureus. Description: Antimicrobial activity against methicillin-resistant Staphylococcus aureus KMP9. It counts as functional.
Regarding `C=C[C@]1(C)C[C@@H](OC(=O)CN2CCN(C(=O)CCn3cnc4c(N5CCC(N)C5)ncnc43)CC2)[C@]2(C)[C@H](C)CC[C@]3(CCC(=O)[C@@H]32)[C@@H](C)[C@@H]1O.Cl.Cl` (stereo partly specified), the MIC is 0.5 µg/mL.
On the same count and under the same terms, the figure for `C=C[C@]1(C)C[C@@H](OC(=O)CN(C)CCN(C)C(=O)CCn2cnc3c(N4CCC(N)C4)ncnc32)[C@]2(C)[C@H](C)CC[C@]3(CCC(=O)[C@@H]32)[C@@H](C)[C@@H]1O.Cl.Cl` (stereo partly specified) is 4 µg/mL; for `C=C[C@]1(C)C[C@@H](OC(=O)CSC2CCCN(C(=O)CCn3cnc4c(N5CCNCC5)nc(N)nc43)C2)[C@]2(C)[C@H](C)CC[C@]3(CCC(=O)[C@@H]32)[C@@H](C)[C@@H]1O.Cl` (stereo partly specified) it is 1 µg/mL.
The compound `C=C[C@]1(C)C[C@@H](OC(=O)CSCC2CN(C(=O)CCn3cnc4c(N5CCNCC5)nc(N)nc43)CCO2)[C@]2(C)[C@H](C)CC[C@]3(CCC(=O)[C@@H]32)[C@@H](C)[C@@H]1O.Cl` (stereo partly specified) displayed an MIC of 2 µg/mL.

The test system of another assay is Streptococcus pneumoniae. Description: Antimicrobial activity against penicillin-susceptible Streptococcus pneumoniae ATCC 49619 by NCCLS method. The class given is functional.
For the compound `C=C[C@]1(C)C[C@@H](OC(=O)CN2CCN(C(=O)CCn3cnc4c(N5CCC(N)C5)ncnc43)CC2)[C@]2(C)[C@H](C)CC[C@]3(CCC(=O)[C@@H]32)[C@@H](C)[C@@H]1O.Cl.Cl` (stereo partly specified), the MIC was 0.063 µg/mL.
On the same count and under the same terms, the figure for `C=C[C@]1(C)C[C@@H](OC(=O)CN(C)CCN(C)C(=O)CCn2cnc3c(N4CCC(N)C4)ncnc32)[C@]2(C)[C@H](C)CC[C@]3(CCC(=O)[C@@H]32)[C@@H](C)[C@@H]1O.Cl.Cl` (stereo partly specified) is 0.063 µg/mL; for `C=C[C@]1(C)C[C@@H](OC(=O)CSC2CCCN(C(=O)CCn3cnc4c(N5CCNCC5)nc(N)nc43)C2)[C@]2(C)[C@H](C)CC[C@]3(CCC(=O)[C@@H]32)[C@@H](C)[C@@H]1O.Cl` (stereo partly specified) it is 0.032 µg/mL; for `C=C[C@]1(C)C[C@@H](OC(=O)CSCC2CN(C(=O)CCn3cnc4c(N5CCNCC5)nc(N)nc43)CCO2)[C@]2(C)[C@H](C)CC[C@]3(CCC(=O)[C@@H]32)[C@@H](C)[C@@H]1O.Cl` (stereo partly specified) it is 0.063 µg/mL.

In another assay the test system is Enterococcus faecium. The assay is described as follows: Antimicrobial activity against vancomycin-resistant Enterococcus faecium KU1778 by NCCLS method. It counts as functional.
`C=C[C@]1(C)C[C@@H](OC(=O)CN2CCN(C(=O)CCn3cnc4c(N5CCC(N)C5)ncnc43)CC2)[C@]2(C)[C@H](C)CC[C@]3(CCC(=O)[C@@H]32)[C@@H](C)[C@@H]1O.Cl.Cl` (stereo partly specified): the MIC amounted to 0.5 µg/mL.
The same measure, in the same setting: the figure for `C=C[C@]1(C)C[C@@H](OC(=O)CN(C)CCN(C)C(=O)CCn2cnc3c(N4CCC(N)C4)ncnc32)[C@]2(C)[C@H](C)CC[C@]3(CCC(=O)[C@@H]32)[C@@H](C)[C@@H]1O.Cl.Cl` (stereo partly specified) is 1 µg/mL; for `C=C[C@]1(C)C[C@@H](OC(=O)CSC2CCCN(C(=O)CCn3cnc4c(N5CCNCC5)nc(N)nc43)C2)[C@]2(C)[C@H](C)CC[C@]3(CCC(=O)[C@@H]32)[C@@H](C)[C@@H]1O.Cl` (stereo partly specified) it is 0.25 µg/mL; for `C=C[C@]1(C)C[C@@H](OC(=O)CSCC2CN(C(=O)CCn3cnc4c(N5CCNCC5)nc(N)nc43)CCO2)[C@]2(C)[C@H](C)CC[C@]3(CCC(=O)[C@@H]32)[C@@H](C)[C@@H]1O.Cl` (stereo partly specified) it is 0.5 µg/mL.

For the next assay, the system named is Moraxella catarrhalis. The assay is described as follows: Antimicrobial activity against Moraxella catarrhalis K1209 by NCCLS method. It counts as functional.
The compound `C=C[C@]1(C)C[C@@H](OC(=O)CN2CCN(C(=O)CCn3cnc4c(N5CCC(N)C5)ncnc43)CC2)[C@]2(C)[C@H](C)CC[C@]3(CCC(=O)[C@@H]32)[C@@H](C)[C@@H]1O.Cl.Cl` (stereo partly specified) registered an MIC of 0.25 µg/mL.
In turn, `C=C[C@]1(C)C[C@@H](OC(=O)CN(C)CCN(C)C(=O)CCn2cnc3c(N4CCC(N)C4)ncnc32)[C@]2(C)[C@H](C)CC[C@]3(CCC(=O)[C@@H]32)[C@@H](C)[C@@H]1O.Cl.Cl` (stereo partly specified) showed an MIC of 0.25 µg/mL.
Same read-out and setting: the figure for `C=C[C@]1(C)C[C@@H](OC(=O)CSC2CCCN(C(=O)CCn3cnc4c(N5CCNCC5)nc(N)nc43)C2)[C@]2(C)[C@H](C)CC[C@]3(CCC(=O)[C@@H]32)[C@@H](C)[C@@H]1O.Cl` (stereo partly specified) is 0.125 µg/mL; for `C=C[C@]1(C)C[C@@H](OC(=O)CSCC2CN(C(=O)CCn3cnc4c(N5CCNCC5)nc(N)nc43)CCO2)[C@]2(C)[C@H](C)CC[C@]3(CCC(=O)[C@@H]32)[C@@H](C)[C@@H]1O.Cl` (stereo partly specified) it is 0.25 µg/mL.

For a further assay, the system named is Haemophilus influenzae. The assay is described as follows: Antimicrobial activity against Haemophilus influenzae TH13 by NCCLS method. It counts as functional.
`C=C[C@]1(C)C[C@@H](OC(=O)CN2CCN(C(=O)CCn3cnc4c(N5CCC(N)C5)ncnc43)CC2)[C@]2(C)[C@H](C)CC[C@]3(CCC(=O)[C@@H]32)[C@@H](C)[C@@H]1O.Cl.Cl` (stereo partly specified): the MIC is 4 µg/mL.
Still for that read-out and setting: the value for `C=C[C@]1(C)C[C@@H](OC(=O)CN(C)CCN(C)C(=O)CCn2cnc3c(N4CCC(N)C4)ncnc32)[C@]2(C)[C@H](C)CC[C@]3(CCC(=O)[C@@H]32)[C@@H](C)[C@@H]1O.Cl.Cl` (stereo partly specified) was 8 µg/mL.
On the same count and under the same terms, the figure for `C=C[C@]1(C)C[C@@H](OC(=O)CSC2CCCN(C(=O)CCn3cnc4c(N5CCNCC5)nc(N)nc43)C2)[C@]2(C)[C@H](C)CC[C@]3(CCC(=O)[C@@H]32)[C@@H](C)[C@@H]1O.Cl` (stereo partly specified) is 2 µg/mL.
Same read-out and setting: the value for `C=C[C@]1(C)C[C@@H](OC(=O)CSCC2CN(C(=O)CCn3cnc4c(N5CCNCC5)nc(N)nc43)CCO2)[C@]2(C)[C@H](C)CC[C@]3(CCC(=O)[C@@H]32)[C@@H](C)[C@@H]1O.Cl` (stereo partly specified) was 8 µg/mL.

Another assay concerns Staphylococcus aureus. The assay is described as follows: Antimicrobial activity against methicillin-susceptible Staphylococcus aureus infected mouse assessed as survival rate administered iv after 1 hr of infection. The class given is functional.
For orientation: ED50 means the dose at which the effect has come halfway, by size or by number of responders. Regarding `C=C[C@]1(C)C[C@@H](OC(=O)CN2CCN(C(=O)CCn3cnc4c(N5CCC(N)C5)ncnc43)CC2)[C@]2(C)[C@H](C)CC[C@]3(CCC(=O)[C@@H]32)[C@@H](C)[C@@H]1O.Cl.Cl` (stereo partly specified), the ED50 amounted to 0.8 mg/kg.
Still for that read-out and setting: the figure for `C=C[C@]1(C)C[C@@H](OC(=O)CN(C)CCN(C)C(=O)CCn2cnc3c(N4CCC(N)C4)ncnc32)[C@]2(C)[C@H](C)CC[C@]3(CCC(=O)[C@@H]32)[C@@H](C)[C@@H]1O.Cl.Cl` (stereo partly specified) is above 3.13 mg/kg; for `C=C[C@]1(C)C[C@@H](OC(=O)CSC2CCCN(C(=O)CCn3cnc4c(N5CCNCC5)nc(N)nc43)C2)[C@]2(C)[C@H](C)CC[C@]3(CCC(=O)[C@@H]32)[C@@H](C)[C@@H]1O.Cl` (stereo partly specified) it is 3.13 mg/kg; for `C=C[C@]1(C)C[C@@H](OC(=O)CSCC2CN(C(=O)CCn3cnc4c(N5CCNCC5)nc(N)nc43)CCO2)[C@]2(C)[C@H](C)CC[C@]3(CCC(=O)[C@@H]32)[C@@H](C)[C@@H]1O.Cl` (stereo partly specified) it is 4.81 mg/kg.
